Literature values in patent publication US7517545B2, “Reduced-calorie fats containing behenic acid and process of making thereof” (Council of Scientific & Industrial Research, priority 1997, dated 2009).

Details: feed study on rats

absorption of the structured triglycerides vs other oils: significantly lower | excretion into feces vs other oils: higher than other oils
SMILES: CCCCCCCCCCCCCCCCCCCCCCOC(COC(=O)CCCCC)COC(=O)CCCCC [2-behenyl-1,3-dicaproyl glycerol]
